We go through twelve compounds from ChEMBL document CHEMBL1141649, “Inhaled adenosine A(2A) receptor agonists for the treatment of chronic obstructive pulmonary disease” (Bioorg Med Chem Lett, 2008).

The target in one data set is Adenosine receptor A2a (Homo sapiens, UniProt P29274). As to the kind of experiment: Agonist activity at adenosine A2A receptor. The data set is classed as functional.
Data set [1] is described as follows: Intrinsic clearance in human liver microsomes. The data set is classed as ADME, Microsome.
Data set [2] can be described thus: Clearance in rat at 1 mg/kg, iv. The data set is classed as ADME, organism-based. The arrangement: dose 1 mg/kg, route intravenous. The conditions noted are these: in vivo.
The test system of the next data set is Rattus norvegicus. Kind of data set: Unbound clearance in rat at 1 mg/kg, iv. Type of data set: ADME, organism-based. Details: dose 1 mg/kg, route intravenous. Conditions: in vivo.
Data set [3] is described as follows: Membrane permeability by PAMPA assay. Type of data set: ADME. Conditions: read-out: permeability.
Data set [4] can be described thus: Distribution coefficient, log D at pH 7.4. The data set is classed as physicochemical. Conditions: octanol/water.
The nature of data set [5]: Cmax in intratracheally dosed rat at 1 mg/kg. The data set is classed as ADME, organism-based. The conditions noted are these: in vivo, inhaled or intranasal. The arrangement: dose 1 mg/kg, route endotracheal.
Another data set deals with Neutrophil. Kind of data set: Inhibition of […]-induced super oxide production in human neutrophils. Type of data set: functional, cell-based.
The species entered for data set [6] is Cavia porcellus. As to the kind of experiment: Inhibition of capsaicin-induced bronchoconstriction in guinea pig after 15 mins. The data set is classed as functional, organism-based.
Data set [7] is filed under the species Cavia porcellus. Kind of data set: Toxicity assessed as reduction in diastolic blood pressure in guinea pig. The data set is classed as organism-based. The arrangement: scale not given: the % may be the effect or the level left. Conditions: in vivo.

Active and inactive are the calls of the source. The rule behind the calls is not given here. Where only a bound is given, the exact number is not on record here.

Chain of Adenosine receptor A2a (P29274 whole entry): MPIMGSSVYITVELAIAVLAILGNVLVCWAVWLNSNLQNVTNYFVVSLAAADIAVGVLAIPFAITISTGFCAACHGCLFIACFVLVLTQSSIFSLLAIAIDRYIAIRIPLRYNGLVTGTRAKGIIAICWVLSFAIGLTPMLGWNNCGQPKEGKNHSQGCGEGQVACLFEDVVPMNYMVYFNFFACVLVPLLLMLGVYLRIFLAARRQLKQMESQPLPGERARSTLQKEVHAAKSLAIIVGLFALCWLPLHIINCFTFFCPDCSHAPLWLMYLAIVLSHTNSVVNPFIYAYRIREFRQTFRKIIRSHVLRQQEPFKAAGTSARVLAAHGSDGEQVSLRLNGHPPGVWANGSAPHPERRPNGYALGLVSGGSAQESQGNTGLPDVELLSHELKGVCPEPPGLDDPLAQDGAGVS

Turning to `CCNC(=O)[C@H]1O[C@@H](n2cnc3c(NCC(c4ccccc4)c4ccccc4)nc(CNC(=O)NCCN(C4CCCCC4)C(C)(C)C)nc32)[C@H](O)[C@@H]1O`, the IC50 on Adenosine receptor A2a was found to be 33 nM.

In the case of `COC[C@H]1O[C@@H](n2cnc3c(NCC(c4ccccc4)c4ccccc4)nc(NCCN4CCCCC4)nc32)[C@H](O)[C@@H]1O`, the IC50 at Adenosine receptor A2a is 60 nM.

As for `CCNC(=O)[C@H]1O[C@@H](n2cnc3c(NCC(c4ccccc4)c4ccccc4)nc(CNC(=O)NCCN(C(C)C)C(C)C)nc32)[C@H](O)[C@@H]1O`, the IC50 on Adenosine receptor A2a worked out at 11 nM.

Regarding `CCNC(=O)[C@H]1O[C@@H](n2cnc3c(NCC(c4ccccc4)c4ccccc4)nc(CNC(=O)NCCN4CCCCC4)nc32)[C@H](O)[C@@H]1O`, the IC50 at Adenosine receptor A2a is 17 nM.

The compound `CCNC(=O)[C@H]1O[C@@H](n2cnc3c(NCC(c4ccccc4)c4ccccc4)nc(C(=O)NCCN4CCCCC4)nc32)[C@H](O)[C@@H]1O` showed an IC50 on Adenosine receptor A2a of 9 nM.

Take `O=C(NCCN1CCCCC1)c1nc(NCC(c2ccccc2)c2ccccc2)c2ncn([C@@H]3O[C@H](CO)[C@@H](O)[C@H]3O)c2n1`: the IC50 at Adenosine receptor A2a is 65 nM. The compound also showed a microsomal CLint in data set [1] of 62.6 µL/min/mg. For the same compound, the clearance in data set [2] turned out to be 48 mL/min/kg. The CL with Rattus norvegicus came out at 755 mL/min/kg. In addition, the Papp in data set [3] was determined as 0.2 ×10⁻⁶ cm/s. In data set [4], this compound had a pH-dependent lipophilicity (logD) of 2.1. The same compound displayed a Cmax in data set [5] of 20 nM.

`COC[C@H]1O[C@@H](n2cnc3c(NCC(c4ccccc4)c4ccccc4)nc(NCCC4CCCCC4)nc32)[C@H](O)[C@@H]1O`: the IC50 at Adenosine receptor A2a turned out to be 1010 nM.

As for `CCNC(=O)[C@H]1O[C@@H](n2cnc3c(N)nc(NCCc4ccc(CCC(=O)O)cc4)nc32)[C@H](O)[C@@H]1O` [CGS-21680], the microsomal CLint in data set [1] is under 8 µL/min/mg. Half-maximal inhibition in the data set on Neutrophil (IC50) was put at 47 nM. Besides, the outcome in the data set filed under Cavia porcellus [6] was Active. In addition, in the data set filed under Cavia porcellus [7], the Activity is recorded as 30%. The clearance in data set [2] is 14 mL/min/kg. In the data set with Rattus norvegicus, this compound registered a CL of 82 mL/min/kg. Further, in data set [3], the Papp was under 0.2 ×10⁻⁶ cm/s. The pH-dependent lipophilicity (logD) in [4] is -0.15. In data set [5], the Cmax was determined as 271 nM.

`CCNC(=O)[C@H]1O[C@@H](n2cnc3c(NCC(c4ccccc4)c4ccccc4)nc(NCCC4CCCCC4)nc32)[C@H](O)[C@@H]1O` gave an IC50 at Adenosine receptor A2a of 1000 nM.

Turning to `CCNC(=O)[C@H]1O[C@@H](n2cnc3c(NCC(c4ccccc4)c4ccccc4)nc(CNC(=O)NCCN(C(C)C)C4CCCC4)nc32)[C@H](O)[C@@H]1O`, the IC50 at Adenosine receptor A2a came out at 6 nM. For the same compound, the microsomal CLint in data set [1] was determined as 135 µL/min/mg. For the same compound, the clearance in [2] came out at 45 mL/min/kg. The same compound showed a CL in the data set on Rattus norvegicus of 3500 mL/min/kg. In addition, the Papp in data set [3] is under 0.7 ×10⁻⁶ cm/s. The pH-dependent lipophilicity (logD) in data set [4] amounted to 2. For the same compound, in data set [5], the concentration peaked (Cmax) at 1.8 nM.

In turn, `COC[C@H]1O[C@@H](n2cnc3c(NCC(c4ccccc4)c4ccccc4)nc(CCNC4CCCCC4)nc32)[C@H](O)[C@@H]1O` gave an IC50 at Adenosine receptor A2a of 28 nM.

At Adenosine receptor A2a, `COC[C@H]1O[C@@H](n2cnc3c(NCC(c4ccccc4)c4ccccc4)nc(CNC4CCCCC4)nc32)[C@H](O)[C@@H]1O` registered an IC50 of 100 nM.
